Measured values reported in ChEMBL document CHEMBL1145929, “Syntheses and binding studies of new [(aryl)(aryloxy)methyl]piperidine derivatives and related compounds as potential antidepressant drugs with high affinity for serotonin (5-HT) and norepinephrine (NE) transporters” (J Med Chem, 2003).

What was measured:
[1] = molecular target: T1, 5-hydroxytryptamine receptor 1A (Rattus norvegicus, UniProt P19327); experiment: Binding affinity against 5-hydroxytryptamine 1A receptor (5-HT1A) by displacement of [3H]8-OH-DPAT from rat hippocampus membranes; type: cell membranes, Membrane
T1 sequence (P19327 whole entry): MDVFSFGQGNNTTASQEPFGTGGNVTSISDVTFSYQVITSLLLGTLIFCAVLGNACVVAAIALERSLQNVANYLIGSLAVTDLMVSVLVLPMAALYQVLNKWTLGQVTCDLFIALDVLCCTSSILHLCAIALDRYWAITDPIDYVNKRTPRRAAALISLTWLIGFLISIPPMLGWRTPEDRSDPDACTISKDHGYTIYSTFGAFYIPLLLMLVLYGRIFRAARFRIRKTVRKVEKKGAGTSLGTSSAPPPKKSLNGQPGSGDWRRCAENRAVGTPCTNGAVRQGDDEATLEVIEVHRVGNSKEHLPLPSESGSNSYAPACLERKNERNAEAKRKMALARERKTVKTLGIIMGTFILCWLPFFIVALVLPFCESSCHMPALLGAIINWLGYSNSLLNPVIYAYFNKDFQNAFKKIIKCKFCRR

[2] = molecular target: 5-hydroxytryptamine receptor 2A (Rattus norvegicus, UniProt P14842); experiment: Binding affinity against 5-hydroxytryptamine 2A receptor by displacement of [3H]-ketanserin from rat prefrontal cerebral cortex mambranes; type: tissue-based, Frontal cortex
[3] = molecular target: T2, Sodium-dependent serotonin transporter (Rattus norvegicus, UniProt P31652); experiment: Binding affinity to the serotonin transporter (SERT) measured by displacement of [3H]paroxetine in male wistar rats
[4] = molecular target: T2, Sodium-dependent serotonin transporter; experiment: Binding affinity against serotonin transporter (SERT) by displacement of [3H]paroxetine in male wistar rats

T2 sequence (P31652 whole entry): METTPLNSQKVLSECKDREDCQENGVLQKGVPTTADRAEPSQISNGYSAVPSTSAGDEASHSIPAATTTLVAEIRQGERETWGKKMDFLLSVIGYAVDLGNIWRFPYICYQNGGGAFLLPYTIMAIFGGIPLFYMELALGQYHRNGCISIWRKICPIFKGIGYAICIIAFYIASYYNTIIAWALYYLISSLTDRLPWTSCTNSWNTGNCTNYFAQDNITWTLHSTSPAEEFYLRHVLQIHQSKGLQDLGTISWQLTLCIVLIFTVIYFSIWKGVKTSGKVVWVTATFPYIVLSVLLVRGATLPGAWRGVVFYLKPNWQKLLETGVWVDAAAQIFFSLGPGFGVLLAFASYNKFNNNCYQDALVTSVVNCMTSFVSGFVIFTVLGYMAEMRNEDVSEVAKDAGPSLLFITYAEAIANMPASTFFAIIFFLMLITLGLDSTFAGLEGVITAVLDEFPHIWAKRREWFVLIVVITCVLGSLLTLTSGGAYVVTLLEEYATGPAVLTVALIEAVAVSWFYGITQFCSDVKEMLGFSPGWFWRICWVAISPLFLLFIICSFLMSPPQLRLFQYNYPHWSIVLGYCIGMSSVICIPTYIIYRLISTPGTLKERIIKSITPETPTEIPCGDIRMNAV
Chain of 5-hydroxytryptamine receptor 2A (P14842 whole entry): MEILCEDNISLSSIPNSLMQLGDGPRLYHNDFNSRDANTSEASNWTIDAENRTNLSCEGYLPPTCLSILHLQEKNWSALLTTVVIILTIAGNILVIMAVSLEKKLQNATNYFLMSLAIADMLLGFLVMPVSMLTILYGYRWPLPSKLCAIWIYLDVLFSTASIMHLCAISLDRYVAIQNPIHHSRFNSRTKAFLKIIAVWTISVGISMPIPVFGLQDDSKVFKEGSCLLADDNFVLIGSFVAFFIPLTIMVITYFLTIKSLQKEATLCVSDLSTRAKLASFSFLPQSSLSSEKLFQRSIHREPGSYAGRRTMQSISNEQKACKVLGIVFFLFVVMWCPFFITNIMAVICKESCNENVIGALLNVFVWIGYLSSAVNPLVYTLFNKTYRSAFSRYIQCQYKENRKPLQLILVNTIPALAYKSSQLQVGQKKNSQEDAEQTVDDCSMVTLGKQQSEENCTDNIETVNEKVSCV

Row | IC50 [1] [µM] | IC50 [2] [µM] | Ki [3] [µM] | IC50 [4] [µM] | SMILES
1 | > 1 | > 1 | 0.002 | – | Oc1cc(F)cc(OC(c2ccccc2)C2CCNCC2)c1 (stereo not drawn)
2 | > 1 | > 1 | 0.0206 | – | Ic1ccc(OC(c2ccccc2)C2CCNCC2)cc1 (stereo not drawn)
3 | > 1 | > 1 | 0.0009 | – | COc1ccc(OC(c2ccc(F)cc2)C2CCNCC2)cc1 (stereo not drawn)
4 | > 1 | > 1 | 0.0208 | – | COc1ccc(OC(c2ccc(F)cc2)C2CCCNC2)cc1 (stereo not drawn)
5 | > 1 | > 1 | 0.0322 | – | Fc1ccc(C(Oc2ccc(Cl)c(Cl)c2)C2CCCNC2)cc1 (stereo not drawn)
6 | > 1 | > 1 | 0.0262 | – | Fc1ccc(C(Oc2ccc(C(F)(F)F)cc2)C2CCCNC2)cc1 (stereo not drawn)
7 | > 1 | > 1 | 0.0099 | – | Clc1ccc(OC(c2ccccc2)C2CCNCC2)cc1Cl (stereo not drawn)
8 | > 1 | > 1 | – | > 1 | Fc1ccccc1OC(CCN1CCc2ccccc2C1)c1ccccc1 (stereo not drawn)
9 | > 1 | > 1 | – | > 1 | COc1ccc(OC(c2ccc(F)cc2)C2CCN(C(C)=O)CC2)cc1 (stereo not drawn)
10 | > 1 | > 1 | 0.009 | – | FC(F)(F)c1cccc(OC(c2ccccc2)C2CCNCC2)c1 (stereo not drawn)
11 | > 1 | > 1 | 0.0075 | – | Fc1ccc(OC(c2ccc(Cl)cc2)C2CCNCC2)cc1 (stereo not drawn)
12 | > 1 | > 1 | 0.0156 | – | Cc1ccc(Cl)cc1OC(c1ccccc1)C1CCNCC1 (stereo not drawn)
13 | > 1 | > 1 | – | > 1 | c1ccc(-c2ccc(OC(c3ccccc3)C3CCNCC3)cc2)cc1 (stereo not drawn)
14 | > 1 | > 1 | 0.0155 | – | Oc1c(F)cccc1OC(c1ccccc1)C1CCNCC1 (stereo not drawn)
15 | > 1 | > 1 | 0.0194 | – | Clc1ccc(C(Oc2ccccc2)C2CCNCC2)cc1 (stereo not drawn)
16 | > 1 | > 1 | 0.0234 | – | Fc1ccc(OC(c2ccc(F)cc2)C2CCCNC2)cc1 (stereo not drawn)
17 | > 1 | > 1 | 0.124 | – | FC(F)(F)c1ccccc1OC(c1ccccc1)C1CCNCC1 (stereo not drawn)
18 | > 1 | > 1 | – | > 1 | Fc1cccc(OC(c2ccccc2)C2CCOCC2)c1 (stereo not drawn)
19 | > 1 | > 1 | 0.0082 | – | Clc1ccccc1OC(c1ccccc1)C1CCNCC1 (stereo not drawn)
20 | > 1 | > 1 | – | > 1 | COc1cc2c(cc1OC)CN(CCC(Oc1ccc(Cl)cc1)c1ccccc1)CC2 (stereo not drawn)
21 | > 1 | > 1 | 0.0213 | – | Oc1ccc(OC(c2ccccc2)C2CCNCC2)cc1F (stereo not drawn)
22 | > 1 | > 1 | 0.0226 | – | Cc1ccc(OC(c2ccc(F)cc2)C2CCCNC2)cc1 (stereo not drawn)
23 | > 1 | > 1 | 0.134 | – | COc1cc2c(cc1OC)CN(CCC(Oc1ccccc1C(F)(F)F)c1ccccc1)CC2 (stereo not drawn)
24 | > 1 | > 1 | 0.0141 | – | Cc1ccc(C(Oc2cccc(F)c2)C2CCNCC2)cc1 (stereo not drawn)
25 | > 1 | > 1 | 0.0215 | – | Fc1ccc(C(Oc2cccc3ccccc23)C2CCCNC2)cc1 (stereo not drawn)
26 | > 1 | > 1 | 0.001 | – | N#Cc1cccc(OC(c2ccccc2)C2CCNCC2)c1 (stereo in doubt; 15k)
27 | > 1 | > 1 | 0.002 | – | Brc1ccc(OC(c2ccccc2)C2CCNCC2)cc1 (stereo in doubt; 15r)
28 | > 1 | > 1 | – | – | CNCCC(Oc1ccccc1OC)c1ccccc1 (stereo not drawn) [NISOXETINE]

More lines, now with the values behind:

Row | SMILES | IC50 [1] [µM] | IC50 [2] [µM] | Ki [3] [µM] | IC50 [4] [µM]
29 | Fc1ccc(C(Oc2ccccc2)C2CCCNC2)cc1 (stereo not drawn) | > 1 | > 1 | 0.0406 | –
30 | N#Cc1ccc(OC(c2ccc(F)cc2)C2CCCNC2)cc1 (stereo not drawn) | > 1 | > 1 | 0.04 | –
31 | Ic1cccc(OC(c2ccccc2)C2CCNCC2)c1 (stereo not drawn) | > 1 | > 1 | 0.0037 | –
32 | Fc1cccc(OC(c2ccccc2)C2CCCC2)c1 (stereo not drawn) | > 1 | > 1 | – | > 1
33 | N#Cc1ccc(OC(CC2CCNCC2)c2ccc(F)cc2)cc1 (stereo not drawn) | > 1 | > 1 | 0.0169 | –
34 | Brc1cccc(OC(c2ccccc2)C2CCNCC2)c1 (stereo not drawn) | > 1 | > 1 | 0.01 | –
35 | Fc1ccc(C(Oc2ccc3c(c2)OCO3)C2CCCNC2)cc1 (stereo not drawn) | > 1 | > 1 | 0.0042 | –
36 | COc1cc2c(cc1OC)CN(CCC(Oc1ccc(C)cc1)c1ccccc1)CC2 (stereo not drawn) | > 1 | > 1 | – | 0.325
37 | COc1cc2c(cc1OC)CN(CCC(Oc1ccccc1F)c1ccccc1)CC2 (stereo not drawn) | > 1 | > 1 | 0.207 | –
38 | Cc1ccc(OC(CCN2CCc3ccccc3C2)c2ccccc2)cc1 (stereo not drawn) | > 1 | > 1 | – | > 1
39 | N#Cc1ccccc1OC(c1ccccc1)C1CCNCC1 (stereo not drawn) | > 1 | > 1 | 0.105 | –
40 | Oc1cc2c(cc1O)CN(CCC(Oc1ccc(Cl)cc1)c1ccccc1)CC2 (stereo not drawn) | > 1 | > 1 | – | > 1
41 | Oc1cc2c(cc1O)CN(CCC(Oc1ccccc1F)c1ccccc1)CC2 (stereo not drawn) | > 1 | > 1 | – | > 1
42 | Cc1c(F)cccc1OC(c1ccccc1)C1CCNCC1 (stereo not drawn) | > 1 | > 1 | 0.0053 | –
43 | Cc1c(Cl)cccc1OC(c1ccccc1)C1CCNCC1 (stereo not drawn) | > 1 | > 1 | 0.0122 | –
44 | Fc1ccc(C(Oc2ccc(Cl)cc2)C2CCCNC2)cc1 (stereo not drawn) | > 1 | > 1 | 0.0139 | –
45 | COc1ccc(OC(CC2CCNCC2)c2ccccc2)cc1 (stereo not drawn) | > 1 | > 1 | 0.047 | –
46 | Oc1cc2c(cc1O)CN(CCC(Oc1ccccc1C(F)(F)F)c1ccccc1)CC2 (stereo not drawn) | > 1 | > 1 | – | > 1
47 | FC(F)(F)c1ccc(OC(c2ccccc2)C2CCNCC2)cc1 (stereo not drawn) | > 1 | > 1 | 0.0171 | –
48 | Cc1ccc(OC(CCN2CCc3cc(O)c(O)cc3C2)c2ccccc2)cc1 (stereo not drawn) | > 1 | > 1 | – | > 1
49 | N#Cc1cc(F)cc(OC(c2ccccc2)C2CCNCC2)c1 (stereo not drawn) | > 1 | > 1 | 0.0026 | –

Row | SMILES | IC50 [1] [µM] | IC50 [2] [µM] | Ki [3] [µM] | IC50 [4] [µM]
50 | Fc1ccc(OC(c2ccc(F)cc2)C2CCNCC2)cc1 (stereo not drawn) | > 1 | > 1 | 0.0009 | –
51 | COc1cc(F)cc(OC(c2ccccc2)C2CCNCC2)c1 (stereo not drawn) | > 1 | > 1 | 0.0019 | –
52 | Clc1ccc(OC(CCN2CCc3ccccc3C2)c2ccccc2)cc1 (stereo not drawn) | > 1 | > 1 | – | > 1
53 | FC(F)(F)c1ccccc1OC(CCN1CCc2ccccc2C1)c1ccccc1 (stereo not drawn) | > 1 | > 1 | – | > 1
54 | CC(=O)N1CCC(C(Oc2ccccc2)c2ccc(F)cc2)CC1 (stereo not drawn) | > 1 | > 1 | – | > 1
55 | N#Cc1ccc(OC(c2ccccc2)C2CCNCC2)cc1Cl (stereo not drawn) | > 1 | > 1 | 0.0039 | –
56 | c1ccc(OC(c2ccccc2)C2CCNCC2)cc1 (stereo not drawn) | > 1 | > 1 | 0.0023 | –
57 | Fc1ccc(OC(c2ccccc2)C2CCNCC2)cc1 (single isomer, unassigned; (-)) | > 1 | > 1 | – | –
58 | Fc1cc(F)cc(OC(c2ccccc2)C2CCNCC2)c1 (stereo in doubt; 15aj) | > 1 | > 1 | 0.0034 | –
59 | c1ccc(C(Oc2cccc3ccccc23)C2CCNCC2)cc1 (stereo in doubt; 15au) | > 1 | > 1 | 0.0083 | –
60 | Fc1ccccc1OC(c1ccccc1)C1CCNCC1 (stereo in doubt; 15b) | > 1 | > 1 | 0.0063 | –
61 | Fc1cccc(OC(c2ccccc2)C2CCNCC2)c1 (stereo in doubt; 15j) | > 1 | > 1 | – | –
62 | Clc1cccc(OC(c2ccccc2)C2CCNCC2)c1 (stereo in doubt; 15l) | > 1 | > 1 | – | –
63 | O=[N+]([O-])c1ccc(OC(c2ccccc2)C2CCNCC2)cc1 (stereo in doubt; 15m) | > 1 | > 1 | 0.0024 | –
64 | Fc1ccc(OC(c2ccccc2)C2CCNCC2)cc1 (stereo in doubt; 15p) | > 1 | > 1 | 0.0011 | –
65 | Fc1cccc(C(Oc2ccccc2F)C2CCNCC2)c1 (stereo in doubt; 15t) | > 1 | > 1 | 0.0093 | –
66 | Fc1cccc(OC(c2cccc(F)c2)C2CCNCC2)c1 (stereo in doubt; 15u) | > 1 | > 1 | 0.0161 | –
67 | Fc1cccc(OC(c2cccc(F)c2)C2CCNCC2)c1 (stereo in doubt; (-)-15u) | > 1 | > 1 | – | –
68 | Fc1ccc([C@@H]2CCNC[C@H]2COc2ccc3c(c2)OCO3)cc1 [PAROXETINE] | > 1 | – | – | –
69 | COc1ccc(C(CN(C)C)C2(O)CCCCC2)cc1 (stereo not drawn) [VENLAFAXINE] | > 1 | – | – | –
